Test results published in the supplement of paper PMC10307832.

Each cell line was assayed with CC1=CC(=C(N1C2=CC=C(C=C2)Cl)C)C(=O)CN3CCCCC3 [IU1-47] + O=C(c1cc(Cc2n[nH]c(=O)c3ccccc23)ccc1F)N1CCN(C(=O)C2CC2)CC1 [Olaparib] (partner 8 µM) (assay: relative viability (nuclei count vs DMSO), 5 days (fraction); higher = more cells survive). Details: first compound 0.08 µM.
Method in brief: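 The day after seeding in 1536-well plates, lung cancer cell lines were treated by pin tool with a single drug, or with a fixed anchor-drug dose together with five library-drug doses (not always all listed) in √10 steps. After 5 days, a combined fix-and-stain solution (final 0.05% Triton X-100, 1% formaldehyde, 1 ug/ml Hoechst) was added. Nuclei counted on 4× images gave relative viability as treated counts over vehicle counts, reported as the median of duplicate plates.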

First: SK-LU-1
Second: NCI-H1299
The relative viability of the first is lower: 0.663 for the first, 0.982 for the second.

First: CAL-12T
Second: NCI-H2228
The relative viability of the first is lower: 0.705 for the first, 0.738 for the second.

NCI-H2023 showed a relative viability of 0.454.

Same assay, conditions: first compound 0.253 µM

Compared with NCI-H522, NCI-H727 is higher in relative viability: 0.715 for the first, 0.729 for the second.

Compared with NCI-H1650, EBC-1 is lower in relative viability: 0.797 for the first, 0.691 for the second.

Compared with NCI-H1703, NCI-H1993 is higher in relative viability: 0.39 for the first, 1.01 for the second.

First: SW 1573
Second: NCI-H838
The relative viability of the first is lower: 0.462 for the first, 0.799 for the second.

First: LCLC-103H
Second: NCI-H520
The relative viability of the first is higher: 0.831 for the first, 0.391 for the second.

Compared with NCI-H2126, EMC-BAC-2 is lower in relative viability: 0.945 for the first, 0.548 for the second.

Going from NCI-H2085 to Calu-6, the relative viability falls from 0.763 to 0.566.

Compared with HCC-366, NCI-H1666 is higher in relative viability: 0.328 for the first, 0.681 for the second.

First: LK-2
Second: NCI-H2087
The relative viability of the first is higher: 0.958 for the first, 0.633 for the second.

Compared with NCI-H2342, SK-MES-1 is higher in relative viability: 0.432 for the first, 0.771 for the second.

First: H3255
Second: COR-L23
The relative viability of the first is higher: 0.609 for the first, 0.389 for the second.

Going from COR-L 105 to IA-LM, the relative viability rises from 0.78 to 0.863.

First: LOU-NH91
Second: ChaGo-K-1
The relative viability of the first is higher: 0.995 for the first, 0.393 for the second.

Compared with NCI-H2170, NCI-H2405 is higher in relative viability: 0.652 for the first, 0.871 for the second.

First: HOP-62
Second: A549
The relative viability of the first is higher: 0.622 for the first, 0.28 for the second.

Going from NCI-H1648 to NCI-H2009, the relative viability falls from 1.17 to 0.678.

Compared with NCI-H661, SK-LU-1 is lower in relative viability: 0.735 for the first, 0.444 for the second.

First: NCI-H1299
Second: CAL-12T
The relative viability of the first is higher: 1.03 for the first, 0.726 for the second.

Compared with NCI-H2228, NCI-H2023 is higher in relative viability: 0.575 for the first, 0.639 for the second.

Same assay, conditions: first compound 0.8 µM

Going from NCI-H522 to NCI-H727, the relative viability rises from 0.525 to 0.691.

First: NCI-H1650
Second: EBC-1
The relative viability of the first is higher: 0.736 for the first, 0.696 for the second.

First: NCI-H1703
Second: NCI-H1993
The relative viability of the first is lower: 0.447 for the first, 1.08 for the second.

First: SW 1573
Second: NCI-H838
The relative viability of the first is lower: 0.445 for the first, 0.774 for the second.

Compared with LCLC-103H, NCI-H520 is lower in relative viability: 0.779 for the first, 0.269 for the second.

Compared with NCI-H2126, EMC-BAC-2 is lower in relative viability: 0.89 for the first, 0.402 for the second.

First: NCI-H2085
Second: Calu-6
The relative viability of the first is higher: 0.747 for the first, 0.586 for the second.

First: HCC-366
Second: NCI-H1666
The relative viability of the first is lower: 0.423 for the first, 0.79 for the second.

Going from NCI-H596 to LK-2, the relative viability rises from 0.754 to 0.802.

Compared with NCI-H2087, NCI-H2342 is lower in relative viability: 0.563 for the first, 0.463 for the second.

Compared with SK-MES-1, H3255 is lower in relative viability: 0.664 for the first, 0.569 for the second.

First: COR-L23
Second: COR-L 105
The relative viability of the first is lower: 0.314 for the first, 0.699 for the second.

Going from IA-LM to LOU-NH91, the relative viability falls from 0.958 to 0.877.

First: ChaGo-K-1
Second: NCI-H2170
The relative viability of the first is lower: 0.435 for the first, 0.634 for the second.

Compared with NCI-H2405, HOP-62 is lower in relative viability: 0.956 for the first, 0.404 for the second.

Going from A549 to SW 900, the relative viability rises from 0.324 to 1.19.

Compared with NCI-H1648, NCI-H2009 is lower in relative viability: 0.813 for the first, 0.612 for the second.

Going from NCI-H661 to SK-LU-1, the relative viability falls from 0.807 to 0.462.

First: NCI-H1299
Second: CAL-12T
The relative viability of the first is higher: 0.958 for the first, 0.747 for the second.

Compared with NCI-H2228, NCI-H2023 is lower in relative viability: 0.596 for the first, 0.49 for the second.

Same assay, conditions: first compound 2.53 µM

First: NCI-H522
Second: NCI-H727
The relative viability of the first is higher: 0.665 for the first, 0.64 for the second.

Going from NCI-H1650 to EBC-1, the relative viability falls from 0.968 to 0.663.

Compared with NCI-H1703, NCI-H1993 is higher in relative viability: 0.355 for the first, 1.08 for the second.

First: SW 1573
Second: NCI-H838
The relative viability of the first is lower: 0.453 for the first, 0.911 for the second.

Going from LCLC-103H to NCI-H520, the relative viability falls from 0.77 to 0.349.

Compared with NCI-H2126, EMC-BAC-2 is lower in relative viability: 0.898 for the first, 0.534 for the second.

Going from NCI-H2085 to Calu-6, the relative viability falls from 0.768 to 0.617.

Going from HCC-366 to NCI-H1666, the relative viability rises from 0.312 to 0.713.

Compared with NCI-H596, LK-2 is higher in relative viability: 0.718 for the first, 0.745 for the second.

Going from NCI-H2087 to NCI-H2342, the relative viability falls from 0.646 to 0.425.

First: SK-MES-1
Second: H3255
The relative viability of the first is higher: 0.652 for the first, 0.54 for the second.

Going from COR-L23 to COR-L 105, the relative viability rises from 0.396 to 0.665.

First: IA-LM
Second: LOU-NH91
The relative viability of the first is higher: 0.979 for the first, 0.966 for the second.

Compared with ChaGo-K-1, NCI-H2170 is higher in relative viability: 0.452 for the first, 0.693 for the second.

Going from NCI-H2405 to HOP-62, the relative viability falls from 0.91 to 0.554.

Compared with SW 900, NCI-H1648 is lower in relative viability: 1.11 for the first, 0.656 for the second.

Going from NCI-H2009 to NCI-H661, the relative viability falls from 0.804 to 0.801.

Going from SK-LU-1 to NCI-H1299, the relative viability rises from 0.55 to 0.923.

Going from CAL-12T to NCI-H2228, the relative viability rises from 0.797 to 0.869.

Work on NCI-H2023 yielded a relative viability of 0.44.

Same assay, conditions: first compound 8 µM

Compared with NCI-H522, NCI-H727 is lower in relative viability: 0.668 for the first, 0.66 for the second.

Going from NCI-H1650 to EBC-1, the relative viability falls from 0.797 to 0.766.

First: NCI-H1703
Second: NCI-H1993
The relative viability of the first is lower: 0.487 for the first, 1.14 for the second.

First: SW 1573
Second: NCI-H838
The relative viability of the first is lower: 0.501 for the first, 0.58 for the second.

Going from LCLC-103H to NCI-H520, the relative viability falls from 0.737 to 0.309.

Compared with NCI-H2126, EMC-BAC-2 is lower in relative viability: 0.762 for the first, 0.533 for the second.

Compared with NCI-H2085, Calu-6 is lower in relative viability: 0.742 for the first, 0.616 for the second.

First: HCC-366
Second: NCI-H1666
The relative viability of the first is lower: 0.292 for the first, 0.759 for the second.

First: NCI-H596
Second: LK-2
The relative viability of the first is lower: 0.632 for the first, 0.641 for the second.

Going from NCI-H2087 to NCI-H2342, the relative viability falls from 0.476 to 0.418.

Compared with SK-MES-1, H3255 is lower in relative viability: 0.786 for the first, 0.561 for the second.

Compared with COR-L23, COR-L 105 is higher in relative viability: 0.405 for the first, 0.745 for the second.

Going from IA-LM to LOU-NH91, the relative viability falls from 0.903 to 0.886.

Going from ChaGo-K-1 to NCI-H2170, the relative viability rises from 0.362 to 0.652.

First: NCI-H2405
Second: HOP-62
The relative viability of the first is higher: 0.945 for the first, 0.604 for the second.

Going from A549 to SW 900, the relative viability rises from 0.371 to 0.976.

First: NCI-H1648
Second: NCI-H2009
The relative viability of the first is lower: 0.577 for the first, 0.65 for the second.

Going from NCI-H661 to SK-LU-1, the relative viability falls from 0.589 to 0.388.

Compared with NCI-H1299, CAL-12T is lower in relative viability: 0.959 for the first, 0.863 for the second.

Going from NCI-H2228 to NCI-H2023, the relative viability falls from 0.504 to 0.479.
